Experimental data taken from patent publication US20090221640A1, “Novel Crystal Modifications” (ASTRAZENECA AB, priority 2006, published 2009).

How the values were obtained:
[1] = Relative thermodynamic stability in suspension experiments (XRPD on precipitates); assay type: physicochemical
[2] = Humidity sorption by gravimetrical vapour sorption (GVS); assay type: physicochemical
Experimental: The gravimetric responses of test samples to changes in humidity were investigated using either a SGA 100 (VTI Corporation) or a DVS 2 (Surface Measurement System) Gravimetrical Vapour Sorption (GVS) instrument with the following features: Dry to 90% RH and back in steps of, for example, 10% RH.
Equilibrium condition: <0.01 weight-% per 10 minutes (<0.001 weight-%/min)
Approximately 5 mg of the test sample was placed in the cup and evaluated.

[3] = Solid-state storage stability (chemical and physical); assay type: physicochemical; details: 25° C./desiccated; 25° C./60% RH; 40° C./75% RH; examined after 2, 4, 8 and 12 weeks
Experimental: The solid-state stability of compound (I) Form G was studied under three sets of conditions: at 25° C./desiccated; at 25° C./60% RH; and at 40° C./75% RH. Samples were examined after 2, 4, 8 and 12 weeks and chemical and physical stability was evaluated.

[4] = Thermal behaviour on heating (DSC and TGA); assay type: physicochemical; details: below 200° C.; neither solvent loss nor any other thermal event prior to melting
Experimental: The calorimetric response of a test sample to increasing temperature was investigated using a Q1000 Modulated Temperature Differential Scanning Calorimeter (MTDSC) (TA Instruments) using different methods, the main features being:
Normally modulated mode (“heat only”) with a ramp rate of 5° C./min (but also 1 and 20° C./min were used without modulation). The temperature range was from just below ambient to above 200° C.
Approximately 2 mg of the test sample was placed in an aluminium cups with a lid (no crimping).
The gravimetric response of test samples to increasing temperatures was investigated using a Q500 Thermal Gravimetric Analyser (TGA) (TA Instruments) using the following parameters:
Heating rate (normally): 5° C./min
Approximately 2 to 5 mg of the test sample was placed in the cup and heated to just above 200° C.

MMP12 = MMP12 (Homo sapiens, UniProt P39900); details: background statement, compound of WO 02/074767; cited from earlier work
Sequence of MMP12 (P39900 106-470): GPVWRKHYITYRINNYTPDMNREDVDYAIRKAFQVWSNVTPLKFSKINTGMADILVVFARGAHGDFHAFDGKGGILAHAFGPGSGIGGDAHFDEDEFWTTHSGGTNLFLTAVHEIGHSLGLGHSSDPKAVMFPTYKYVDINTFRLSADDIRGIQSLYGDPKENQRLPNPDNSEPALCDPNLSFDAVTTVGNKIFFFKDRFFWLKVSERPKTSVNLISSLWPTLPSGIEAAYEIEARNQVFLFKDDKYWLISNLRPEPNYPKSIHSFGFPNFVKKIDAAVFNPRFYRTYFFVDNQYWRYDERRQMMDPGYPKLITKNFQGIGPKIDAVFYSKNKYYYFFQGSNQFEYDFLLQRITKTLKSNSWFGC

## C[C@]1(CS(=O)(=O)N2CCC(Oc3ccc(Cl)cn3)CC2)NC(=O)NC1=O [compound (I) Form G, (S)-5-[4-(5-Chloro-pyridin-2-yloxy)-piperidine-1-sulfonylmethyl]-5-methyl-imidazolidine-2,4-dione Form G]
[1]; temperature range investigated (5 to 40° C.)
  relative thermodynamic stability among the seven crystalline modifications: thermodynamically most stable
[2]; at 80% RH, GVS
  humidity uptake: < 0.05%
[2]; criteria defined in the European Pharmacopoeia
  hygroscopicity classification: non-hygroscopic
[3]
  solid-state chemical and physical stability: chemically and physically stable
[4]
  thermal stability (DSC and TGA traces): thermally stable

## C[C@]1(CS(=O)(=O)N2CCC(Oc3ccc(Cl)cn3)CC2)NC(=O)NC1=O [Form A, (5S)-5-[4-(5-chloro-pyridin-2-yloxy)-piperidine-1-sulfonylmethyl]-5-methyl-imidazolidine-2,4-dione]
[1]; suspensions in organic solvents (ethanol, methanol, 1-propanol, 2-propanol, acetone or ethyl acetate)
  conversion of crystal form in suspension (XRPD): complete conversion into Form G

## C[C@]1(CS(=O)(=O)N2CCC(Oc3ccc(Cl)cn3)CC2)NC(=O)NC1=O [Compound (I), (5S)-5-[4-(5-chloro-pyridin-2-yloxy)-piperidine-1-sulfonylmethyl]-5-methyl-imidazolidine-2,4-dione]
MMP12
  MMP12 inhibition (in words): potent inhibitor of MMP12
